Reference: patent US12044651B2, “Sensor device and methods” (SCENTIAN BIO LIMITED, priority 2016, dated 2024)

Legend:
[1] = CNT-FET control, pristine CNT FET and empty nanodisc functionalized CNT FET (Example 2)
Protocol: In order to carry out the electrical measurements the devices were set up with the PDMS well and source, drain and gate electrodes, via micromanipulators and a Rucker and Kolls probe station, as shown in FIG. 9. Before starting the electrical measurements, 100 μl of PBS buffer (containing 1% DMSO) was added into the testing well. The gate electrode is an Ag/AgCl wire (In Vivo Metric) sheathed in plastic where the exposed area at the end of Ag/AgCl was completely inserted into the PBS buffer to avoid any electrical artefacts that are known to occur when changing the active area of the gate electrode. An Agilent 4156C parameter analyser is used for all electrical measurements^20. The parameter analyser has excellent sensitivity and can accurately measure currents on the femto-amp scale.
During transfer (Vlg−Ids) measurements the gate voltage (Vlg) is swept between −500 mV to +1 V and the source drain voltage (Vds) is set as fixed values (50 mV, 100 mV or 200 mV). For our real time sensing measurement the Vlg is set to 0 and Vds is set as fixed values (50 mV, 100 mV or 200 mV, with a time step of 1 s.
The E-2-hexenal ligand solution is diluted from our 100 mM stock solution, to the concentration ranges required for the sensing experiments. […]

Or22a = target: T1, Or22a (Drosophila melanogaster, UniProt P81909); assay: CNT-FET sensor covalently functionalized with Or22a nanodiscs (Example 3); format: binding
T1 sequence (P81909 1-397): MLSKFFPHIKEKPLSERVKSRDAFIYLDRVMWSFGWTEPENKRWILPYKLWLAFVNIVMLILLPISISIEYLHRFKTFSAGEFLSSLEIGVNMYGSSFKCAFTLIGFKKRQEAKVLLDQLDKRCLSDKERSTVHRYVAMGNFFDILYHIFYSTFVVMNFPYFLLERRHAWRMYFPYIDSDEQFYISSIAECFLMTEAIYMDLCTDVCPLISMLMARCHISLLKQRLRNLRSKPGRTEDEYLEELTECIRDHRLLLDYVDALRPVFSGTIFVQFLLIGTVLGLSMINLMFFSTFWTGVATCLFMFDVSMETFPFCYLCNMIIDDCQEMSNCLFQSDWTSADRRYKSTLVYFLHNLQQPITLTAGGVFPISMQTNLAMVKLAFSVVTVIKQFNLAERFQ
Protocol: The dispersion was sonicated until a clear solution was obtained. The temperature was kept at 25° C. throughout the sonication process. The thiolpyridine solution was prepared by dissolving 10 mg of 2-Mercaptopyridine (99%, Sigma Aldrich) in 1 ml of methanol. The solution was spun coated on a polydimethylsiloxane (PDMS) surface at 2000 rpm for one minute. Before the spin coating process, the PDMS surface was cleaned by a 50 W Oxygen plasma for 1 minute to improve the wettability. The cleaned substrates were placed upside down on the PDMS surface for three minutes and washed in ethanol to remove the excess thiolpyridine molecules. Then the substrates were transferred into the CNT suspension and immersed into the suspension for 10 minutes. The samples were removed from the suspension and dipped into Ethanol for another 10 minutes to remove the thiolpyridine molecules in the SWNT network. The alignment markers were deposited by defining the markers by photolithography and thermal evaporation of 5 nm Chromium and 50 nm of Gold. The metal Lift off was done by acetone immersion for 15 minutes followed by an Isopropyl alcohol (IPA) wash and N2 blow dry. The result is a uniform thin film CNT network covering the entire substrate surface. The purification procedure is a variation on the one detailed in […] et al. 2013^14. […] Purity was assessed on Coomassie stained SDS-PAGE gels and Western blotting. […]

Structure (SMILES)	real time current response [1]	limit of detection (Or22a; nanodiscs 1:100 dilution)	concentration at which clear electronic response starts (Or22a; real time current measurement mode)
CCC/C=C/C=O [E2-hexenal]	no clear current response		
CCCCCC(=O)OC [methyl hexanoate]		below 1 fM	1 fM
